This note sets out measurements from patent US10779535B2, “Herbicidal compositions comprising 4-amino-3-chloro-5-fluoro-6-(4-chloro-2-fluoro-3-methoxyphenyl) pyridine-2-carboxylic acid or a derivative thereof and tembotrione and/or topramezone” (Dow AgroSciences LLC, priority 2017, dated 2020).

Common to all, as to assay: Post-emergence foliar-applied herbicidal mixtures, greenhouse visual weed control
Type in all cases: in vivo

Test [1] relates to AMARE (Amaranthus retroflexus, redroot pigweed). From the text:
(§1) Seeds of the desired test plant species were planted in a potting media, Metro-mix 360, a peat based potting soil. Metro-mix consists of 35 to 45% specially processed coconutcoir pith, 10 to 20% horticultural grade vermiculite, 15 to 25% processed ash bark, 20 to 30% choice Canadian sphagnum peat moss and proprietary nutrients and other ingredients. When required to ensure good germination and healthy plants, a fungicide treatment and/or other chemical treatment was applied. The plants were grown for 8-16 days in a greenhouse with an approximate 14 h photoperiod which was maintained at about 29° C. during the day and 26° C. during the night. Nutrients (Peters Excel® 15-5-15 5-Ca 2-Mg and iron chelate) were applied in the irrigation solution as needed and water was added on a regular basis. Supplemental lighting was provided with overhead metal halide 1000-Watt lamps as necessary. The plants were sprayed when they reached the second through fourth true leaf stage.
(§2) Treatments consisted of the benzyl ester of 4-amino-3-chloro-5-fluoro-6-(4-chloro-2-fluoro-3-methoxy-phenyl)pyridine-2-carboxylic acid (II), formulated as an SC (suspension concentrate), GF-2978 containing 125.8 g ai/L of active ingredient, and various herbicidal components alone and in combination. The benzyl ester of formula (II) was applied on an active ingredient basis.
(§3) Other herbicidal components were applied on an active ingredient basis and included 4-hydroxyphenyl pyruvate dioxygenase (HPPD)-inhibiting herbicides tembotrione formulated as Laudis, an SC formulation containing 420 g ai/L of tembotrione, or topramezone formulated as Armezon, an SC formulation containing 335.8 g ai/L of topramezone. All treatments were applied with Prime Oil, (crop oil concentrate) at 1% v/v.
(§4) Treatment requirements were calculated based upon the rates being tested, the concentration of active ingredient or acid equivalent in the formulation, for a 30 ml volume based off of an application rate of 200 L/ha. Appropriate amounts of formulated product as calculated by the software package ARM8 (Gylling Data Management Inc.) were added to 60 ml glass vials and diluted with Indianapolis tap water and Prime Oil at 1% v/v. Treatments were applied with Generation III Research Track-Sprayer manufactured by DeVries Manufacturing in Hollandale, Minn., USA, located in building 306, room E1-483, at the Dow AgroSciences Global headquarters in Indianapolis, Ind. US. The track sprayer was calibrated to deliver 200 L/ha utilizing an 8003E even fan spray nozzle at 40 psi (276 kPa) at a speed of 2 mph (3.25 km/hr) and a spray height of 18 to 20 inches (46 to 50 cm) above average plant canopy height.
The treated plants and control plants were placed in a greenhouse as described above and watered by sub-irrigation to prevent wash-off of the test compounds. […] the untreated plants was determined visually and scored on a scale of 0 to 100 percent where 0 corresponds to no injury or growth inhibition and 100 corresponds to complete kill. The Colby method was used to determine the herbicidal effects expected from the mixtures.

Test [2] has as its system ECHCG (Echinochloa crusgalli (L.) Beauv., barnyardgrass).
Description: as §1, §2, §3, §4
(§5) The treated plants and control plants were placed in a greenhouse as described above and watered by sub-irrigation to prevent wash-off of the test compounds. […], the condition of the test plants as compared with that of the untreated plants was determined visually and scored on a scale of 0 to 100 percent where 0 corresponds to no injury or growth inhibition and 100 corresponds to complete kill. The Colby method was used to determine the herbicidal effects expected from the mixtures.

Test [3] deals with IPOHE (Ipomoea hederacea (L.) Jacq., ivyleaf morningglory).
Description: as §1, §2, §3, §4, §5

In test [4] the test system is AMAPA (Amaranthus palmeri, Palmer amaranth).
Description: as §1, §2, §3, §4, §5

Where [5] appears, read: Compound II 0 gai/ha, Topramezone 24 gai/ha.
The mark [6] stands for this setting: Compound II 0 gai/ha, Topramezone 6 gai/ha.
[7] abbreviates: Compound II 0 gai/ha, Topramezone 12 gai/ha.
Where [8] appears, read: Compound II 0 gai/ha, Topramezone 3 gai/ha.
Setting [9] is: Compound II 0 gai/ha, Tembotrione 46 gai/ha.
Setting [10] is: Compound II 15 gai/ha, Topramezone 0 gai/ha.
Where [11] appears, read: Compound II 2.5 gai/ha, Tembotrione 0 gai/ha.
[12] abbreviates: Compound II 2.5 gai/ha, Topramezone 0 gai/ha.
The mark [13] stands for this setting: Compound II 5 gai/ha, Topramezone 0 gai/ha.
The mark [14] stands for this setting: Compound II 7.5 gai/ha, Topramezone 0 gai/ha.

As for `Cc1c(C(=O)c2cnn(C)c2O)ccc(S(C)(=O)=O)c1C1=NOCC1` [Topramezone, [3-(4,5-dihydro-3-isoxazolyl)-2-methyl-4-(methylsulfonyl)phenyl](5-hydroxy-1-methyl-1H-pyrazol-4-yl)methanone], the “Visual Weed Control (%) - 5 DAA AMARE Obs” value in test [1] (setting [5]) was found to be 50.75%. Moreover, the “Visual Weed Control (%) - 12 DAA AMARE Obs” value is listed as 52.5% in test [1] (setting [6]) and 77.5% in test [1] (setting [7]). For the same compound, the “Visual Weed Control (%) - 5 DAA ECHCG Obs” value is given as 0.75% in test [2] (setting [8]), 6.25% in test [2] (setting [6]) and 51.25% in test [2] (setting [5]). Also, the “Visual Weed Control (%) - 12 DAA ECHCG Obs” value amounted to 0% in test [2] (setting [8]), 1.25% in test [2] (setting [6]) and 36.25% in test [2] (setting [7]). The “Visual Weed Control (%) - 5 DAA IPOHE Obs” value in test [3] (setting [8]) was 6.25%; in test [3] (setting [6]) it was 6.25%; in test [3] (setting [7]), 8.75%; in test [3] (setting [5]) it was 33.25%. The “Visual Weed Control (%) - 12 DAA AMAPA Obs” value was 86.67% in test [4] (setting [8]) and 75% in test [4] (setting [6]).

Regarding `CS(=O)(=O)c1ccc(C(=O)C2C(=O)CCCC2=O)c(Cl)c1COCC(F)(F)F` [Tembotrione, 2-[2-chloro-4-(methylsulfonyl)-3-[(2,2,2-trifluoroethoxy)methyl]benzoyl]-1,3-cyclohexanedione], the “Visual Weed Control (%) - 12 DAA AMARE Obs” value in test [1] (setting [9]) stood at 43.75%. In test [2] (setting [9]), the “Visual Weed Control (%) - 5 DAA ECHCG Obs” value was found to be 57.5%. In addition, the “Visual Weed Control (%) - 12 DAA AMAPA Obs” value is listed as 44.33% in test [4] (Compound II 0 gai/ha, Tembotrione 5.75 gai/ha); 50% in test [4] (Compound II 0 gai/ha, Tembotrione 11.5 gai/ha); 66% in test [4] (Compound II 0 gai/ha, Tembotrione 23 gai/ha).

Turning to `COc1c(Cl)ccc(-c2nc(C(=O)OCc3ccccc3)c(Cl)c(N)c2F)c1F` [Compound II, benzyl 4-amino-3-chloro-6-(4-chloro-2-fluoro-3-methoxyphenyl)-5-fluoropyridine-2-carboxylate], the “Visual Weed Control (%) - 5 DAA AMARE Obs” value in test [1] (setting [10]) amounted to 73%. Besides, the “Visual Weed Control (%) - 12 DAA AMARE Obs” value in test [1] (setting [11]) is reported as 61.25%; in test [1] (setting [12]), 61.25%; in test [1] (setting [13]), 65.75%; in test [1] (Compound II 7.5 gai/ha, Tembotrione 0 gai/ha), 75%; in test [1] (setting [14]), 75%. Moreover, the “Visual Weed Control (%) - 5 DAA ECHCG Obs” value is on record as 22.5% in test [2] (setting [11]); 22.5% in test [2] (setting [12]); 53.75% in test [2] (setting [13]); 55% in test [2] (setting [14]); 65% in test [2] (setting [10]). In addition, the “Visual Weed Control (%) - 12 DAA ECHCG Obs” value in test [2] (setting [13]) is 61.25%; in test [2] (setting [14]), 70.75%. The “Visual Weed Control (%) - 5 DAA IPOHE Obs” value came to 51.25% in test [3] (setting [12]), 62.5% in test [3] (setting [13]), 61.25% in test [3] (setting [14]) and 55.75% in test [3] (setting [10]). Besides, the “Visual Weed Control (%) - 12 DAA AMAPA Obs” value in test [4] (setting [11]) is 75%; in test [4] (setting [12]), 75%; in test [4] (Compound II 5 gai/ha, Tembotrione 0 gai/ha), 73.33%; in test [4] (setting [13]), 73.33%; in test [4] (setting [14]), 85%; in test [4] (Compound II 15 gai/ha, Tembotrione 0 gai/ha) it was 80%. Besides, the “Visual Weed Control (%) - 12 DAA AMAPA Obs” value in test [4] (setting [10]) is on record as 80%.
